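Cultured in 96-well plates, cells were exposed to test compound for 48 hours across five concentrations. The concentration for 50% growth inhibition is given as GI50. TGI: concentration producing complete growth inhibition.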

Test systems include SK-MEL-5 melanoma; OVCAR-8 ovarian; 786-0 renal; K-562 leukemia; MDA-MB-231 breast; OVCAR-4 ovarian; UACC-62 melanoma; U251 CNS; ACHN renal; KM12 colon.
Common to all, as to assay: growth of human tumour cells (NCI), 48 h

Regarding `C=C(c1ccc(OC)c(/C=C/C(=O)c2ccc3c(c2)OCO3)c1)c1cc(OC)c(OC)c(OC)c1`, the GI50 with SK-MEL-5 melanoma was 1.97 µM; with OVCAR-8 ovarian, 2.89 µM; with 786-0 renal, 2.16 µM; in the assay on K-562 leukemia it was 0.783 µM; in the assay with MDA-MB-231 breast, 5.97 µM; with OVCAR-4 ovarian it was 3.93 µM. Also, the GI50 with UACC-62 melanoma was 1.32 µM; in the assay with U251 CNS, 2.54 µM. In addition, the TGI in the assay on SK-MEL-5 melanoma is 6.71 µM; in the assay on OVCAR-8 ovarian, 18.2 µM; in the assay on 786-0 renal it was 5.61 µM; in the assay on K-562 leukemia it was 13.9 µM; in the assay with MDA-MB-231 breast, more than 100 µM; with OVCAR-4 ovarian, more than 100 µM. Also, the results for the TGI in the assay with UACC-62 melanoma and with U251 CNS were more than 100 µM and 9.88 µM, respectively.

For `O=c1c2c(nc3n1CCS3)[nH]c1cc([N+](=O)[O-])ccc12`, the GI50 with OVCAR-8 ovarian, in the assay on 786-0 renal, in the assay on K-562 leukemia, in the assay with ACHN renal, in the assay on MDA-MB-231 breast and in the assay with OVCAR-4 ovarian was more than 100 µM throughout. For the same compound, the GI50 in the assay on UACC-62 melanoma, with U251 CNS and in the assay with KM12 colon was more than 100 µM each time. Moreover, the TGI with OVCAR-8 ovarian, in the assay with 786-0 renal, in the assay with K-562 leukemia, in the assay on ACHN renal, with MDA-MB-231 breast and with OVCAR-4 ovarian was more than 100 µM in each case. The TGI in the assay with UACC-62 melanoma, in the assay with U251 CNS and with KM12 colon was more than 100 µM each time.

For the compound `Cc1c(C)c2ccc3oc4ccccc4c3c2oc1=O`, the TGI in the assay on SK-MEL-5 melanoma, with OVCAR-8 ovarian, in the assay with 786-0 renal, in the assay with K-562 leukemia, in the assay on ACHN renal and with OVCAR-4 ovarian was more than 100 µM in each case. In addition, the TGI with UACC-62 melanoma, in the assay on U251 CNS and with KM12 colon was more than 100 µM in each case.

For `COC(=O)c1cc2c(=O)n(C)c3ccccc3n2c1C(=O)OC`, the TGI in the assay with SK-MEL-5 melanoma was more than 100 µM; with OVCAR-8 ovarian, more than 100 µM; in the assay with 786-0 renal, 50.3 µM; in the assay on K-562 leukemia, more than 100 µM; in the assay on ACHN renal, more than 100 µM; with OVCAR-4 ovarian it was more than 100 µM. Further, the results for the TGI in the assay with UACC-62 melanoma, in the assay on U251 CNS and with KM12 colon were more than 100 µM, 58.8 µM and more than 100 µM, respectively.

Take `OC(CNc1ccnc2cc(Cl)ccc12)CNc1ccnc2cc(Cl)ccc12`: the GI50 was 1.58 µM in the assay with SK-MEL-5 melanoma; 1.81 µM in the assay with 786-0 renal; 5.09 µM with ACHN renal; 1.73 µM in the assay with MDA-MB-231 breast; 1.64 µM with OVCAR-4 ovarian; 1.7 µM in the assay with UACC-62 melanoma. For the same compound, the TGI in the assay on SK-MEL-5 melanoma was 3.02 µM; with 786-0 renal, 3.39 µM; in the assay with ACHN renal, 28.2 µM; with MDA-MB-231 breast it was 3.44 µM; in the assay with OVCAR-4 ovarian, 3.34 µM; with UACC-62 melanoma, 3.37 µM.

Take `O=C(O)CCNCC(=O)O`: the TGI in the assay on SK-MEL-5 melanoma, in the assay on OVCAR-8 ovarian, in the assay on 786-0 renal, in the assay with K-562 leukemia, in the assay with ACHN renal and with MDA-MB-231 breast was more than 100 µM throughout. Also, the TGI in the assay with UACC-62 melanoma, in the assay with U251 CNS and with KM12 colon was more than 100 µM throughout.

On to `CCOC(OC(C)=O)[C@@H]1C=C[C@H](C)N(c2ccc([N+](=O)[O-])cc2)O1` (stereo partly drawn), for which the TGI in the assay with SK-MEL-5 melanoma was 13.4 µM; with OVCAR-8 ovarian it was 4.55 µM; in the assay on 786-0 renal, 7.23 µM; in the assay with K-562 leukemia, more than 26.7 µM; in the assay with ACHN renal it was 13 µM; in the assay on OVCAR-4 ovarian, 15.4 µM. Moreover, the TGI was determined as 7.55 µM in the assay on UACC-62 melanoma, 9 µM in the assay with U251 CNS and 7.82 µM in the assay on KM12 colon.

Take `CCC[C@H]1O[C@@H]2CC(=O)O[C@@H]2C2=C1C(=O)C=CC2=O`: the TGI is 36 µM in the assay with SK-MEL-5 melanoma; more than 74.9 µM in the assay on OVCAR-8 ovarian; 30.3 µM with 786-0 renal; more than 46.5 µM in the assay with K-562 leukemia; 25.7 µM with ACHN renal; 29.9 µM in the assay on OVCAR-4 ovarian. The TGI was 32.3 µM with UACC-62 melanoma, more than 53.7 µM with U251 CNS and 48.3 µM with KM12 colon.

As for `CN(CCS(=O)(=O)N1C(=O)C2CCCN2C(=O)[C@@H]1Cc1ccccc1)C(=O)OCc1ccccc1` (stereo partly drawn), the TGI is more than 100 µM with SK-MEL-5 melanoma; more than 100 µM with OVCAR-8 ovarian; more than 100 µM in the assay with 786-0 renal; more than 100 µM with K-562 leukemia; 73.4 µM in the assay with ACHN renal; more than 100 µM in the assay with OVCAR-4 ovarian. Also, the TGI was 95.7 µM in the assay on UACC-62 melanoma, more than 100 µM in the assay with U251 CNS and more than 100 µM in the assay on KM12 colon.

Regarding `C=CCC1(CN(C)C)CC/C(=C\c2ccc(OC)cc2)C1=O` (stereo not drawn), the TGI with SK-MEL-5 melanoma, in the assay with OVCAR-8 ovarian, in the assay with 786-0 renal, with K-562 leukemia, in the assay with ACHN renal and in the assay on OVCAR-4 ovarian was more than 100 µM each time. Moreover, the TGI in the assay with UACC-62 melanoma, in the assay with U251 CNS and in the assay with KM12 colon was more than 100 µM each time.

On to `C=C[C@@H](C)[C@]1(C(=O)OC)CCCC12OCCO2`, for which the TGI in the assay with SK-MEL-5 melanoma, with OVCAR-8 ovarian, in the assay with 786-0 renal, in the assay on K-562 leukemia, with ACHN renal and in the assay on OVCAR-4 ovarian was more than 100 µM each time. The TGI in the assay on UACC-62 melanoma, in the assay with U251 CNS and with KM12 colon was more than 100 µM each time.

Take `Cc1ccc(C)c(N2C(=O)C(=O)C(c3nc4ccccc4s3)/C(=N/N)C2=O)c1` (stereo not drawn): the TGI in the assay with SK-MEL-5 melanoma, in the assay on OVCAR-8 ovarian, in the assay with 786-0 renal, in the assay on K-562 leukemia, with ACHN renal and in the assay on OVCAR-4 ovarian was more than 100 µM each time. Moreover, the TGI in the assay on UACC-62 melanoma, with U251 CNS and in the assay with KM12 colon was more than 100 µM throughout.

Regarding `COc1ccc(C(=O)C(CN(C)C)CN(C)C)cc1`, the GI50 in the assay with SK-MEL-5 melanoma was 15.3 µM; in the assay on OVCAR-8 ovarian it was 3.14 µM; with 786-0 renal it was 3.87 µM; in the assay on ACHN renal it was 1.56 µM; in the assay on MDA-MB-231 breast it was 14.6 µM; in the assay on UACC-62 melanoma it was 5.27 µM. Also, the figures for the GI50 in the assay with U251 CNS and in the assay with KM12 colon were 14.2 µM and 11.9 µM, respectively. For the same compound, the TGI stood at 29 µM in the assay with SK-MEL-5 melanoma; 22.4 µM in the assay with OVCAR-8 ovarian; 16.1 µM with 786-0 renal; 2.93 µM in the assay with ACHN renal; 36.6 µM in the assay with MDA-MB-231 breast; 19.4 µM with UACC-62 melanoma. The TGI with U251 CNS stood at 34.1 µM; in the assay with KM12 colon, 27.3 µM.

The values are drawn from PubChem BioAssay (NCI).
